The NIST ThermoML archive (doi:10.1016/j.jct.2018.08.005)

Assay: xn = mol fraction of the nth substance listed
Settings: Liquid; for mass density: Vibrating tube method; for speed of sound: Frequency=3 MHz, Pulse-echo method

CCOC(F)(C(F)(F)C(F)(F)C(F)(F)F)C(F)(C(F)(F)F)C(F)(F)F (stereo not given) [2-trifluoromethyl-3-ethoxydodecafluorohexane] + CC(C)OC(C)C
Settings	mass density, x1 = 0.25 [kg/m3]	mass density, x1 = 0.375 [kg/m3]	mass density, x1 = 0.5 [kg/m3]	mass density, x1 = 0.625 [kg/m3]	mass density, x1 = 0.75 [kg/m3]	speed of sound, x1 = 0.25 [m/s]	speed of sound, x1 = 0.375 [m/s]	speed of sound, x1 = 0.5 [m/s]	speed of sound, x1 = 0.625 [m/s]	speed of sound, x1 = 0.75 [m/s]
333.15 K, 100000 kPa	–	–	–	–	1580.9	–	–	–	–	–
333.15 K, 110000 kPa	1138.5	1274.2	1393.9	1499.9	1591.8	–	–	–	–	–
333.15 K, 120000 kPa	1146.4	1282.9	1403.2	1509.7	1602.1	–	–	–	–	–
333.15 K, 130000 kPa	1153.9	1291.2	1412.1	1519.2	1611.9	–	–	–	–	–
333.15 K, 140000 kPa	1160.9	1299	1420.5	1528.1	1621.2	–	–	–	–	–
343.15 K, 100 kPa	–	1091.4	1197	1291.8	1376.3	–	588	563	550.5	540.2
343.15 K, 10000 kPa	1000.6	1121.3	1229.2	1325.6	1411.1	–	–	–	–	–
343.15 K, 20000 kPa	1021.9	1145.1	1254.7	1352.4	1438.8	792.6	745.6	714	697.6	681.6
343.15 K, 30000 kPa	1039.6	1164.8	1275.9	1374.8	1462	–	–	–	–	–
343.15 K, 40000 kPa	1055.2	1182.1	1294.4	1394.4	1482.3	911.7	858.7	822.8	803.3	783.8
343.15 K, 50000 kPa	1068.8	1197.3	1310.8	1411.7	1500.3	–	–	–	–	–
343.15 K, 60000 kPa	1081.1	1210.9	1325.4	1427.3	1516.5	1007.3	949.5	911	889.2	867
343.15 K, 70000 kPa	1092.4	1223.4	1338.9	1441.4	1531.3	–	–	–	–	–
343.15 K, 80000 kPa	1102.8	1234.9	1351.3	1454.6	1544.9	1089.6	1026.7	987	963.1	938.2
343.15 K, 90000 kPa	1112.5	1245.7	1362.8	1466.8	1557.6	–	–	–	–	–
343.15 K, 100000 kPa	1121.5	1255.8	1373.5	1478.2	1569.5	1161.8	1095.1	1054.1	1028.7	1001.7
343.15 K, 110000 kPa	1130.1	1265.3	1383.8	1489.1	1580.8	–	–	–	–	–
343.15 K, 120000 kPa	1138.2	1274.2	1393.3	1499.3	1591.4	–	–	–	–	–
343.15 K, 130000 kPa	1145.9	1282.7	1402.5	1509.1	1601.6	–	–	–	–	–
343.15 K, 140000 kPa	1153.3	1290.7	1411.2	1518.2	1611.2	–	–	–	–	–
353.15 K, 100 kPa	–	–	–	1271.2	1355.1	–	–	–	–	512.6
353.15 K, 10000 kPa	986.5	1105.6	1212.9	1308.2	1393	–	–	–	–	–
353.15 K, 20000 kPa	1009.3	1131.2	1240.1	1337	1422.7	767.9	724.5	692.8	676.5	660.7
353.15 K, 30000 kPa	1028.2	1152.3	1262.7	1360.8	1447.4	–	–	–	–	–
353.15 K, 40000 kPa	1044.4	1170.2	1281.9	1381.2	1468.5	889.5	841.4	804.5	785.2	765.7
353.15 K, 50000 kPa	1058.7	1186	1298.8	1399.2	1487.3	–	–	–	–	–
353.15 K, 60000 kPa	1071.6	1200.3	1314.2	1415.5	1504.2	986.5	935.6	894	872.6	850.4
353.15 K, 70000 kPa	1083.3	1213.3	1328.1	1430.3	1519.5	–	–	–	–	–
353.15 K, 80000 kPa	1094.2	1225.2	1340.9	1443.9	1533.7	–	1015.6	971	947.8	923.1
353.15 K, 90000 kPa	1104.1	1236.2	1352.7	1456.5	1546.8	–	–	–	–	–
353.15 K, 100000 kPa	1113.4	1246.6	1363.8	1468.2	1559	1142.6	–	1039.1	1014.4	987.2
353.15 K, 110000 kPa	1122.1	1256.3	1374.2	1479.2	1570.4	–	–	–	–	–
353.15 K, 120000 kPa	1130.4	1265.4	1384.1	1489.7	1581.4	–	–	–	–	–
353.15 K, 130000 kPa	1138.3	1274.2	1393.5	1499.7	1591.7	–	–	–	–	–
353.15 K, 140000 kPa	1145.6	1282.4	1402.4	1509	1601.4	–	–	–	–	–
363.15 K, 10000 kPa	972.2	1089.6	1196.4	1290.3	1374.4	–	–	–	–	–
363.15 K, 20000 kPa	996.8	1117.1	1225.6	1321.2	1406.2	–	–	–	–	–
363.15 K, 30000 kPa	1016.8	1139.3	1249.3	1346.4	1432.1	–	–	–	–	–
363.15 K, 40000 kPa	1033.8	1158.1	1269.5	1367.8	1454.3	–	–	–	–	–
363.15 K, 50000 kPa	1048.7	1174.8	1287.3	1386.6	1473.8	–	–	–	–	–
363.15 K, 60000 kPa	1062	1189.6	1303.1	1403.4	1491.2	–	–	–	–	–
